Laboratory results: US8686187B2, “Ethoxy diphenyl ethane derivatives, preparation processes and uses thereof” (Shanghai Ecust Biomedicine Co., Ltd., priority 2008, dated 2014)
Read-outs that look alike come from different tables or passages of the source.

Key:
[1] = system: S180 sarcoma transplanted tumor; experiment: Tumor-inhibiting rate experiment, intravenous injection, S180 sarcoma transplanted tumor in mice; format: in vivo; conditions: for Tumor-inhibiting rate (%): d0-d12 seven times, tumor weight; for tumor volume observation in drug administered group: around the eighth day after drug administration
Description: After 1 week for adaptation, mice are subcutaneously inoculated with S180 sarcoma tissues and randomly grouped after the tumor grows as much as the area of 100 to 300 mm^3; every compound is used for 6 mice in drug administered group and for 12 mice in control group, the administration doses are as below: 25, 50 mg/kg of ECB1P, ECB1GN hydrochloride, ECB1SN hydrochloride and positive controls ECA4P, ECA4GN hydrochloride, as well as 50, 100 mg/kg of positive controls CB1GA hydrochloride, CB1P and CA4P, the administration is given intravenously on Day d0, d2, d4, d6, d8, d10 and d12, seven times in total, measurement of tumor volume, mice weighing and data recording are performed three times every week, the mice are executed on the fourtheenth day after inoculation, tumor tissues are weighed to calculate the tumor-inhibiting rate, tumor weight inhibiting rate %=(1−average tumor weight in treatment group/average tumor weight in control group)×100%.

Kunming mice = experiment: Acute toxicity test of single mice intraperitoneal injection; format: in vivo; conditions: for LD50: 14 days observation
Description: Kunming mice (half-and-half male and female, 17 to 22 grams heavy) are randomly grouped according to weights thereof, and during the test, the mice are divided, based on the proportion of 0.9, into 10 dose groups with each including 10 mice and having the maximal dose of 1500 mg/kg, the tested drugs having the respective doses of 1500, 1350, 1215, 1093, 984, 885, 797, 717, 645 and 581 mg/kg are administered in a manner of single intraperitoneal injection, mice observation and death rate recording are respectively performed once 0.25 h, 0.5 h, 1 h, 2 h, 4 h and 24 h after the drug administration, afterwards, everyday mice observation and death rate recording are performed for 14 days, the mice that are not dead are executed on the fifteenth day and are subjected to pathological anatomy.

[2] = system: Human colorectal cancer cell HT-29; experiment: Antitumor activity evaluation for in vitro cultured tumor cells (SRB); format: cell-based; conditions: for times stronger than positive control CB1: colorectal cancer HT-29
[3] = system: Non-small cell lung cancer cell NCl-H292; experiment: as above; format: cell-based
Gastric cancer SGC-7901 = experiment: as above; format: cell-based
Liver cancer Bel-7402 = experiment: as above; format: cell-based
[4] = system: Human umbilical vein endothelial cell (HUVEC); experiment: Proliferation inhibition of human umbilical vein endothelial cells (SRB); format: cell-based
[5] = HT-29, 48 hours, SRB, read-out: IC50
[6] = NCl-H292, 48 hours, SRB, read-out: IC50
[7] = SGC-7901, 48 hours, SRB, read-out: IC50
[8] = Bel-7402, 48 hours, SRB, read-out: IC50

**Q.** For CCOc1ccc(/C=C\c2cc(OC)c(OC)c(OC)c2)cc1OP(=O)([O-])[O-].[Na+].[Na+] [ECA4P, (Z)-3,4,5-trimethoxy-4′-ethoxydiphenylethylene-3′-o-disodium phosphate salt], which “Tumor-inhibiting rate (%)” value ([1]; 25 mg/kg intravenously) is on record?
**A.** 43%

**Q.** And the “tumor volume observation in drug administered group” value [1]?
**A.** tendency of tumor shrinkage

**Q.** And the LD50 (Kunming mice)?
**A.** 906 mg/kg

**Q.** Which results are given for CCOc1ccc(CCc2cc(OC)c(OC)c(OC)c2)cc1N [ECB1N, 3,4,5-trimethoxy-3′-amino-4′-ethoxydiphenylethane]?
**A.** IC50 [2, 5]: 0.18 nM; times stronger than positive control CB1 [2]: about 200 times; IC50 [3, 6]: 120 nM; IC50 (Gastric cancer SGC-7901; [7]): 0.15 nM; IC50 (Liver cancer Bel-7402; [8]): 34 nM; IC50 ([4]; 48 hours, SRB, read-out: IC50): 0.68 nM

**Q.** Which “Tumor-inhibiting rate (%)” value ([1]; 50 mg/kg intravenously) does the source give for “3,4,5-trimethoxy-4′-methoxydiphenylethane3′-o-disodium phosphate salt [CB1P]” here?
**A.** 28%

**Q.** And the LD50 (Kunming mice)?
**A.** 1228 mg/kg

**Q.** For COc1ccc(/C=C\c2cc(OC)c(OC)c(OC)c2)cc1O [CA4, (Z)-3,4,5-trimethoxy-3′-hydroxy-4′-methoxydiphenylethylene], which IC50 ([2]; Homo sapiens, HT-29, 48 hours, SRB, read-out: IC50) is on record?
**A.** 21 nM

**Q.** What about the IC50 [3, 6] of the same compound?
**A.** 2400 nM

**Q.** What about the IC50 (Gastric cancer SGC-7901; Homo sapiens, SGC-7901, 48 hours, SRB, read-out: IC50) of the same compound?
**A.** 3.6 nM

**Q.** And the IC50 (Liver cancer Bel-7402; Homo sapiens, Bel-7402, 48 hours, SRB, read-out: IC50)?
**A.** 830 nM

**Q.** What about the IC50 ([4]; 48 hours, SRB, read-out: IC50) of the same compound?
**A.** 4.8 nM

**Q.** And the IC50 ([4]; Homo sapiens, 48 h, SRB, read-out: IC50)?
**A.** 4.8 to 7.7 nM

**Q.** Which results are given for CCOc1ccc(/C=C\c2cc(OC)c(OC)c(OC)c2)cc1NC(=O)CN.Cl [ECA4GN hydrochloride, (Z)-3,4,5-trimethoxy-3′-glycylamino-4′-ethoxydiphenylethane]?
**A.** Tumor-inhibiting rate (%) ([1]; 25 mg/kg intravenously): 39%; Tumor-inhibiting rate (%) ([1]; 50 mg/kg intravenously, listed as ECA4GN hydrochlonde): 64%; tumor volume observation in drug administered group [1]: tendency of tumor shrinkage; LD50 (Kunming mice): 912 mg/kg

**Q.** What does the source list for COc1ccc(CCc2cc(OC)c(OC)c(OC)c2)cc1N [CB1N, 3,4,5-trimethoxy-3′-amino-4′-methoxydiphenylethane]?
**A.** IC50 [2, 5]: 39 nM; IC50 [3, 6]: 3000 nM; IC50 (Gastric cancer SGC-7901; [7]): 4.8 nM; IC50 (Liver cancer Bel-7402; [8]): 2500 nM; IC50 ([4]; 48 hours, SRB, read-out: IC50): 7.7 nM

**Q.** Which results are given for CCOc1ccc(CCc2cc(OC)c(OC)c(OC)c2)cc1O [ECB1, 3,4,5-trimethoxy-3′-hydroxy-4′-ethoxydiphenylethane]?
**A.** IC50 [2, 5]: 0.34 nM; times stronger than positive control CB1 [2]: about 100 times; IC50 [3, 6]: 170 nM; IC50 (Gastric cancer SGC-7901; [7]): 0.28 nM; IC50 (Liver cancer Bel-7402; [8]): 57 nM; IC50 ([4]; 48 hours, SRB, read-out: IC50): 0.75 nM

**Q.** Which “Tumor-inhibiting rate (%)” value ([1]; 50 mg/kg intravenously) does the source give for “(Z)-3,4,5-trimethoxy-4′-methoxydiphenylethylene-3′-o-disodium phosphate salt [CA4P]” here?
**A.** 28%

**Q.** What about the LD50 (Kunming mice) of the same compound?
**A.** 1276 mg/kg

**Q.** Which results are given for “3,4,5-trimethoxy-3′-glycylamino-4′-ethoxydiphenylethane [ECB1GN hydrochloride]”?
**A.** Tumor-inhibiting rate (%) ([1]; 25 mg/kg intravenously): 40%; tumor volume observation in drug administered group [1]: tendency of tumor shrinkage; toxicity compared with positive controls (Kunming mice): toxicity lower than ethoxydiphenylethylene positive control compounds ECA4P and ECA4GN hydrochloride; LD50 (Kunming mice): 1012 mg/kg

**Q.** What does the source list for CCOc1ccc(CCc2cc(OC)c(OC)c(OC)c2)cc1NC(=O)C(N)CO.Cl (centres unmarked) [ECB1SN hydrochloride, 3,4,5-trimethoxy-3′-serylamino-4′-ethoxydiphenylethane]?
**A.** Tumor-inhibiting rate (%) ([1]; 25 mg/kg intravenously): 45%; tumor volume observation in drug administered group [1]: tendency of tumor shrinkage; toxicity compared with positive controls (Kunming mice): toxicity lower than ethoxydiphenylethylene positive control compounds ECA4P and ECA4GN hydrochloride; LD50 (Kunming mice): 1185 mg/kg

**Q.** What does the source list for CCOc1ccc(/C=C\c2cc(OC)c(OC)c(OC)c2)cc1N [ECA4N, (Z)-3,4,5-trimethoxy-3′-amino-4′-ethoxydiphenylethylene]?
**A.** IC50 ([2]; Homo sapiens, HT-29, 48 h): 0.15 nM; IC50 ([3]; 48 h): 100 nM; IC50 (Gastric cancer SGC-7901; Homo sapiens, SGC-7901, 48 h): 0.19 nM; IC50 (Liver cancer Bel-7402; Homo sapiens, Bel-7402, 48 h): 39 nM; IC50 ([4]; Homo sapiens, 48 h): 0.76 nM

**Q.** What does the source list for COc1ccc(CCc2cc(OC)c(OC)c(OC)c2)cc1O [CB1, 3,4,5-trimethoxy-3′-hydroxy-4′-methoxydiphenylethane]?
**A.** IC50 [2, 5]: 35 nM; IC50 [3, 6]: 2800 nM; IC50 (Gastric cancer SGC-7901; [7]): 4.2 nM; IC50 (Liver cancer Bel-7402; [8]): 1700 nM; IC50 ([4]; 48 hours, SRB, read-out: IC50): 5.6 nM

**Q.** For “3,4,5-trimethoxy-3′-glycylamino-4′-ethoxydiphenylethane [CB1GN hydrochloride]”, which “Tumor-inhibiting rate (%)” value ([1]; 50 mg/kg intravenously) is on record?
**A.** 26%

**Q.** What does the source list for “3,4,5-trimethoxy-4′-ethoxydiphenylethane-3′-o-disodium phosphate salt [ECB1P]”?
**A.** Tumor-inhibiting rate (%) ([1]; 25 mg/kg intravenously): 42%; tumor volume observation in drug administered group [1]: tendency of tumor shrinkage; toxicity compared with positive controls (Kunming mice): toxicity lower than ethoxydiphenylethylene positive control compounds ECA4P and ECA4GN hydrochloride; LD50 (Kunming mice): 1056 mg/kg

**Q.** What does the source list for CCOc1ccc(/C=C\c2cc(OC)c(OC)c(OC)c2)cc1O [ECA4, (Z)-3,4,5-trimethoxy-3′-hydroxy-4′-ethoxydiphenylethylene]?
**A.** IC50 ([2]; Homo sapiens, HT-29, 48 h): 0.28 nM; IC50 ([3]; 48 h): 160 nM; IC50 (Gastric cancer SGC-7901; Homo sapiens, SGC-7901, 48 h): 0.25 nM; IC50 (Liver cancer Bel-7402; Homo sapiens, Bel-7402, 48 h): 63 nM; IC50 ([4]; Homo sapiens, 48 h): 0.8 nM
